Measurements taken from ChEMBL document CHEMBL1128136, “and -N-[(1-benzyl-1H-imidazol-5-yl)-alkyl]-amino acids as angiotensin II AT-1 antagonists” (Bioorg Med Chem Lett, 1995).

Tests used:
[1] = biological target: T1, Type-1 angiotensin II receptor (Homo sapiens, UniProt P30556); assay: Tested for inhibition of Angiotensin II specific binding to Angiotensin II receptor, type 1 in the recombinant human AT-1 receptor expressed in LhAT-1D6 cells; format: cell-based
T1 sequence (P30556 whole entry): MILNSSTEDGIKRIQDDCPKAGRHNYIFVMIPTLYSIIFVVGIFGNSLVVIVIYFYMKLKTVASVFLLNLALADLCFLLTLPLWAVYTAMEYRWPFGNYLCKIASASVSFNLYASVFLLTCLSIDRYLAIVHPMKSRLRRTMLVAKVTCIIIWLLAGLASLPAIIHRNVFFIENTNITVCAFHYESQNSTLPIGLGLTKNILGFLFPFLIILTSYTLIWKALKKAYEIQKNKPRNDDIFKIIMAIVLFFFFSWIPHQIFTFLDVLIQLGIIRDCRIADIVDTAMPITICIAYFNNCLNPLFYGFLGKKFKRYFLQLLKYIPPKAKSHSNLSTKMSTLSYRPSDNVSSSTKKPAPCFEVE

[2] = species: Oryctolagus cuniculus; assay: Compound was tested for inhibition of Angiotensin II-induced vasoconstriction of rabbit aorta.; format: functional
[3] = biological target: T2, Angiotensin II receptor (AT-1) type-1 (Rattus norvegicus, UniProt P29089+P25095); assay: Compound was tested for inhibition of 125 I-Angiotensin II specific binding to rat mesenteric arteries; format: protein assay
T2 sequence (P29089 whole entry): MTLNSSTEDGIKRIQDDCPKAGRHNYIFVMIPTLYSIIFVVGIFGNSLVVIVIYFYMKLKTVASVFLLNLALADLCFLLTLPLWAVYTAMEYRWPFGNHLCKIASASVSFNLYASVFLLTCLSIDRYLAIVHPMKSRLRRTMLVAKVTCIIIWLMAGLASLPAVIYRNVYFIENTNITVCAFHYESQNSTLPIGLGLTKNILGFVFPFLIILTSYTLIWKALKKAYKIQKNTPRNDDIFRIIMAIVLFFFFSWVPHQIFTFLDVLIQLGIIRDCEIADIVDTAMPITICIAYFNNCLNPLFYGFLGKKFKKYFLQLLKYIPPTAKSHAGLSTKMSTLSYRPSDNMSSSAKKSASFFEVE
T2 sequence (P25095 whole entry): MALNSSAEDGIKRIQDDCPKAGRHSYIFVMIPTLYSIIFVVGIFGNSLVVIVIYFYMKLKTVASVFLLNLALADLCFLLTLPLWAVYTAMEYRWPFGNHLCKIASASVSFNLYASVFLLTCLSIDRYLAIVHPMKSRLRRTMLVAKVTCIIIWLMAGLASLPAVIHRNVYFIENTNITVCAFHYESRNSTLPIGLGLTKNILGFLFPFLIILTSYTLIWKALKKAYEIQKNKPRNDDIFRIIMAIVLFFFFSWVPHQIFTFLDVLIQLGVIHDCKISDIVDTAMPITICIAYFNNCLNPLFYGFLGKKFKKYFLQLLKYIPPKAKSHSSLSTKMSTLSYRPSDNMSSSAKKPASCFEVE

[4] = species: Oryctolagus cuniculus; assay: Compound was tested for Non-competitive inhibition ofAngiotensin II -induced vasoconstriction of rabbit aorta.; format: functional

SMILES | IC50 [1] | IC50 [3] | Kb [2] | Kb [4]
CCCCc1ncc(CN[C@H](Cc2c[nH]c3ccccc23)C(=O)O)n1Cc1ccc(C(=O)O)cc1 | 2.9 nM | – | 48 nM | –
CCCCc1ncc(CN(CC(=O)O)Cc2cccs2)n1Cc1ccc(C(=O)O)cc1 | – | 169 nM | 2.4 nM | –
CCCCc1ncc(CN[C@@H](Cc2cccs2)C(=O)O)n1Cc1ccc(C(=O)O)cc1 | – | 673 nM | 63 nM | –
CCCCc1ncc(CN[C@H](Cc2cccs2)C(=O)O)n1Cc1ccc(C(=O)O)cc1 | – | 36.7 nM | 5 nM | –
CCCCc1ncc(/C=C(\Cc2cccs2)C(=O)O)n1Cc1ccc(C(=O)O)cc1 [EPROSARTAN] | – | – | 0.21 nM | –
CCCCc1ncc(CNCC(=O)O)n1Cc1ccc(C(=O)O)cc1 | 298 nM | – | 335 nM | –
CCCCc1ncc(CN[C@@H](C(=O)O)C(C)c2ccccc2)n1Cc1ccc(C(=O)O)cc1 (stereo partly drawn) | – | 28 nM | – | 0.6 nM
CCCCc1ncc(CN[C@@H](Cc2c[nH]c3ccccc23)C(=O)O)n1Cc1ccc(C(=O)O)cc1 | 48.3 nM | – | 885 nM | –

Second part, led by results:

IC50 [1] | IC50 [3] | SMILES | Kb [2] | Kb [4]
– | 517 nM | CCCCc1ncc(CN[C@@H](Cc2ccccc2)C(=O)O)n1Cc1ccc(C(=O)O)cc1 | 125 nM | –
– | 3.8 nM | CCCCc1ncc(CN[C@H](Cc2ccccc2)C(=O)O)n1Cc1ccc(C(=O)O)cc1 | 3.6 nM | –
– | 31 nM | CCCCc1ncc(CN(CC(=O)O)Cc2ccccc2)n1Cc1ccc(C(=O)O)cc1 | 11 nM | –
– | 176 nM | CCCCc1ncc(CN[C@H](C(=O)O)C(C)c2ccccc2)n1Cc1ccc(C(=O)O)cc1 (stereo partly drawn) | 117 nM | –
